Among the test systems are BT-549; CAKI-1; HCC 2998; HL-60; LOX IMVI; M14; MCF7; MDA-MB-435; PC-3; RPMI-8226; SF-268; SK-MEL-28; SK-MEL-5; SNB-19; SNB-75; SR; SW-620; TK-10; U-251; SK-MEL-2.
What all share (experiment): NCI anticancer screen, dose series, 48 h

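Five compound concentrations were applied to cells in 96-well plates for 48 hours; endpoints were derived by simple linear interpolation of the resulting dose-response curve. GI50 = concentration required for 50% inhibition of growth.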 Activity calls are given as the source filed them. No stated cut-off is given here; in the data, active = GI50 up to about 1.1 µM and inactive = higher.

Take `C=CCNC(=O)NC1=CSC2=NC(=O)C3(NN12)c1ccccc1-c1ccccc13`: the GI50 in the assay with BT-549, in the assay with CAKI-1, in the assay on HCC 2998, in the assay with HL-60, in the assay with LOX IMVI and with M14 was > 10 µM (inactive) each time. In addition, the GI50 with MCF7, in the assay on MDA-MB-435, in the assay with PC-3, in the assay with RPMI-8226, with SF-268 and with SK-MEL-28 was > 10 µM (inactive) in each case. Also, the GI50 in the assay with SK-MEL-5, in the assay with SNB-19, in the assay with SNB-75, with SR, in the assay on SW-620 and with TK-10 was > 10 µM (inactive) each time.

Regarding `COc1ccc2c(c1)CC[C@@H]1C2CC[C@]2(C)C(=O)N(CCN(C)C)C(=O)CC12` (some centres not stated), the GI50 in the assay on BT-549, with CAKI-1, in the assay with HCC 2998, with HL-60, in the assay on M14 and with MCF7 was > 100 µM (inactive) each time. Besides, the GI50 was > 100 µM (inactive) in the assay on MDA-MB-435; > 100 µM (inactive) in the assay on PC-3; > 100 µM (inactive) with SF-268; > 100 µM (inactive) with SK-MEL-28; 83.9 µM (inactive) in the assay with SK-MEL-5; > 100 µM (inactive) with SNB-19. Further, the GI50 in the assay on SNB-75, with SR, in the assay with SW-620, in the assay with TK-10 and in the assay with U-251 was > 100 µM (inactive) each time.

For `CCCCc1ccc(-n2sc3ncc(C)cc3c2=O)cc1`, the GI50 with BT-549 is 19.1 µM (inactive); in the assay with HCC 2998, 37.5 µM (inactive); with HL-60, 8.57 µM (inactive); with LOX IMVI, 18.2 µM (inactive); in the assay on M14 it was 13.4 µM (inactive); with MCF7, 19.5 µM (inactive). The GI50 with MDA-MB-435 was 79.8 µM (inactive); in the assay on PC-3, 15 µM (inactive); with RPMI-8226 it was 22 µM (inactive); in the assay on SK-MEL-28 it was 96.2 µM (inactive); in the assay on SK-MEL-2, 10.6 µM (inactive); with SK-MEL-5, 21.5 µM (inactive). The GI50 with SNB-19 is > 100 µM (inactive); in the assay on SNB-75 it was 42.9 µM (inactive); with SR, 75.5 µM (inactive); in the assay on SW-620 it was 27.4 µM (inactive); in the assay with TK-10, 29.1 µM (inactive); in the assay on U-251, 32.7 µM (inactive).

`Cn1c(=O)c2c(nc(-n3nc(-c4ccc(Cl)cc4)cc3N)n2C)n(C)c1=O`: the GI50 with BT-549 is 44.5 µM (inactive); with CAKI-1, > 100 µM (inactive); in the assay with HCC 2998, > 100 µM (inactive); in the assay on HL-60 it was > 100 µM (inactive); in the assay with M14, > 100 µM (inactive); with MCF7, 68.4 µM (inactive). In addition, the GI50 in the assay with MDA-MB-435 was > 100 µM (inactive); with PC-3 it was > 100 µM (inactive); in the assay with RPMI-8226, 69.7 µM (inactive); in the assay on SF-268, 9.91 µM (inactive); in the assay with SK-MEL-28 it was > 100 µM (inactive); in the assay with SK-MEL-2, > 100 µM (inactive). Moreover, the GI50 with SK-MEL-5 was 6.37 µM (inactive); with SNB-19 it was > 100 µM (inactive); in the assay with SR it was 13 µM (inactive); in the assay on TK-10, > 100 µM (inactive); in the assay with U-251, > 100 µM (inactive).

As for `CC(C)(C)CN1[C@@H]2CCCC[C@H]2N(CC(C)(C)C)P1(=O)Cc1ccccc1`, the GI50 was 17.1 µM (inactive) in the assay with BT-549; 12.7 µM (inactive) in the assay with CAKI-1; 9.14 µM (inactive) in the assay on HCC 2998; 11.3 µM (inactive) with HL-60; 15.7 µM (inactive) in the assay on LOX IMVI; 13.5 µM (inactive) with M14. In addition, the GI50 with MCF7 is 12.8 µM (inactive); in the assay with MDA-MB-435, 16.2 µM (inactive); with PC-3, 6.5 µM (inactive); in the assay on SF-268, 15 µM (inactive); in the assay with SK-MEL-28, 16.9 µM (inactive); in the assay with SK-MEL-2, 16.1 µM (inactive). The GI50 in the assay with SK-MEL-5 was 12.2 µM (inactive); in the assay with SNB-19, 14.6 µM (inactive); in the assay on SNB-75 it was 11.4 µM (inactive); with SR, 11.8 µM (inactive); with SW-620, 14 µM (inactive); in the assay on TK-10 it was 12.5 µM (inactive). In the assay on U-251, the GI50 was 13.4 µM (inactive).

As for `CC(=O)Oc1ccc2c(c1)O/C(=C\c1ccc(O)cc1)C2=O`, the GI50 in the assay on BT-549, in the assay with CAKI-1, in the assay with HCC 2998, with HL-60, in the assay on M14 and in the assay on MCF7 was > 100 µM (inactive) throughout. For the same compound, the GI50 in the assay on MDA-MB-435, in the assay with PC-3, with RPMI-8226, with SF-268, in the assay with SK-MEL-28 and in the assay on SK-MEL-5 was > 100 µM (inactive) each time. The GI50 in the assay on SNB-19, in the assay with SNB-75, in the assay with SR, in the assay with SW-620, in the assay with TK-10 and in the assay with U-251 was > 100 µM (inactive) throughout.

Regarding `CC1(C)OCC(C2OC(OC(=O)c3ccc(C(F)(F)F)cc3)C3OC(C)(C)OC23)O1` (configuration not stated), the GI50 with BT-549 was > 77.4 µM (inactive); with CAKI-1, > 77.4 µM (inactive); with HCC 2998, > 77.4 µM (inactive); in the assay with LOX IMVI, > 77.4 µM (inactive); with M14 it was > 77.4 µM (inactive); in the assay on MCF7, 53.3 µM (inactive). Moreover, the GI50 with MDA-MB-435 was > 77.4 µM (inactive); in the assay on PC-3, > 77.4 µM (inactive); in the assay on RPMI-8226, 44.4 µM (inactive); in the assay on SF-268, 45.4 µM (inactive); in the assay with SK-MEL-28, > 77.4 µM (inactive); with SK-MEL-2, > 77.4 µM (inactive). The GI50 with SK-MEL-5 is 74.5 µM (inactive); in the assay on SNB-19 it was > 77.4 µM (inactive); in the assay with SNB-75, 40.2 µM (inactive); in the assay with SR it was 23.4 µM (inactive); with SW-620 it was > 77.4 µM (inactive); in the assay on TK-10, > 77.4 µM (inactive). Besides, in the assay on U-251, the GI50 was 57.8 µM (inactive).

For the compound `CC(=O)O[C@@H]1O[Si](C(C)(C)C)(C(C)(C)C)[C@H](C)[C@H]1C`, the GI50 in the assay with BT-549 is > 100 µM (inactive); in the assay with CAKI-1 it was > 100 µM (inactive); in the assay on HCC 2998 it was 92.7 µM (inactive); with HL-60 it was 21.9 µM (inactive); with LOX IMVI, 25.8 µM (inactive); with M14 it was 38.6 µM (inactive). For the same compound, the GI50 in the assay with MCF7 is 19.1 µM (inactive); with MDA-MB-435 it was 94.8 µM (inactive); in the assay on PC-3, 33 µM (inactive); in the assay with RPMI-8226 it was 45.1 µM (inactive); in the assay on SK-MEL-28, > 100 µM (inactive); with SK-MEL-2, > 100 µM (inactive). Besides, the GI50 in the assay on SK-MEL-5 is 26.1 µM (inactive); in the assay with SNB-19, > 100 µM (inactive); in the assay on SNB-75 it was 6.62 µM (inactive); with SR, > 100 µM (inactive); in the assay with SW-620, 40 µM (inactive); with TK-10, > 100 µM (inactive). In addition, the GI50 in the assay on U-251 was 43.7 µM (inactive).

For the compound `COc1ccc(/N=C2\C(=O)C3=C(OC(C)(C)CC3)c3ccccc32)cc1`, the GI50 with BT-549 was 1.1 µM (active); with CAKI-1 it was 0.991 µM (active); in the assay on HCC 2998 it was 1.51 µM (inactive); with HL-60 it was 0.592 µM (active); in the assay with LOX IMVI, 0.481 µM (active); in the assay on M14, 0.769 µM (active). Moreover, the GI50 was 0.9 µM (active) in the assay on MCF7; 0.264 µM (active) in the assay on MDA-MB-435; 1.29 µM (inactive) with PC-3; 1.8 µM (inactive) in the assay on SF-268; 1.14 µM (inactive) in the assay with SK-MEL-28; 1.16 µM (inactive) with SK-MEL-2. For the same compound, the GI50 was 0.838 µM (active) with SK-MEL-5; 0.916 µM (active) with SNB-19; 1.11 µM (active) in the assay on SNB-75; 0.935 µM (active) with SR; 0.873 µM (active) in the assay with SW-620; 2.33 µM (inactive) in the assay with TK-10. For the same compound, in the assay on U-251, the GI50 is 0.841 µM (active).

Consider `O=C(CCc1cc(O)ccc1O)OCCc1ccccc1`, for which the GI50 in the assay with BT-549 is 11.5 µM (inactive); with CAKI-1 it was 7.66 µM (inactive); in the assay on HCC 2998, 47.2 µM (inactive); in the assay with HL-60 it was 0.718 µM (active); with M14, 23.4 µM (inactive); in the assay on MCF7, 15.8 µM (inactive). The GI50 in the assay with MDA-MB-435 is 10.4 µM (inactive); in the assay with PC-3, 4.91 µM (inactive); in the assay with RPMI-8226 it was 0.875 µM (active); in the assay on SF-268, 5.64 µM (inactive); in the assay with SK-MEL-28, 25.1 µM (inactive); in the assay on SK-MEL-2, 18.7 µM (inactive). Further, the GI50 in the assay with SK-MEL-5 was 22.2 µM (inactive); in the assay with SNB-19 it was 48.5 µM (inactive); in the assay with SNB-75, > 64.1 µM (inactive); in the assay with SR it was 5.6 µM (inactive); in the assay with SW-620, 16.3 µM (inactive); in the assay with TK-10, 14.7 µM (inactive). The GI50 with U-251 was 13.6 µM (inactive).

Consider `O=C(/C=C/c1cc2ccccc2o1)N1CCN(c2ccccn2)CC1`, for which the GI50 in the assay on BT-549 was > 100 µM (inactive); with CAKI-1 it was > 100 µM (inactive); in the assay with HCC 2998 it was > 100 µM (inactive); with HL-60, 40.7 µM (inactive); in the assay with LOX IMVI, > 100 µM (inactive); with M14, 71.6 µM (inactive). Further, the GI50 in the assay with MCF7 was 57.5 µM (inactive); in the assay with MDA-MB-435, > 100 µM (inactive); with PC-3, 50.4 µM (inactive); in the assay with RPMI-8226 it was > 100 µM (inactive); in the assay on SF-268, > 100 µM (inactive); with SK-MEL-28, 35.9 µM (inactive). In addition, the GI50 was > 100 µM (inactive) with SK-MEL-2; > 100 µM (inactive) with SK-MEL-5; > 100 µM (inactive) with SNB-19; > 100 µM (inactive) in the assay on SR; > 100 µM (inactive) with SW-620; 79.6 µM (inactive) with TK-10. The GI50 with U-251 is > 100 µM (inactive).

Values taken from ChEMBL document CHEMBL1201862, “PubChem BioAssay data set” (2004).
